Where no end group is shown, it is not given here.
Experiments:
E.coli KCTC2571 = assay type: cell-based, Escherichia coli; conditions: E.coli KCTC2571; broth microdilution, 37°C, 16 h; three independent experiments in triplicate, SD 14.0%
P. aeruginosa KCTC1637 = assay type: cell-based, Pseudomonas aeruginosa; conditions: P. aeruginosa KCTC1637; broth microdilution, 37°C, 16 h; three independent experiments in triplicate, SD 14.0%
Protocol: (§1) The antimicrobial activities of the peptides against selected organisms, including three Gram-positive, three Gram-negative, and five antibiotic-resistant bacteria, were determined using a broth microdilution assay. Briefly, single colonies of bacteria and fungi were inoculated into Luria-Bertani (LB) medium and cultured overnight at 37°C. An aliquot of the culture was transferred to 10 mL of fresh LB and incubated for an additional 3–5 h at 37°C until it reached the mid-logarithmic phase. Two-fold serial dilutions of the peptides in 1% peptone were prepared. The serial dilutions (100 µL) were added to 100 µL of cells (2×10^6 colony-forming units (CFU)/mL) in 96-well microtiter plates and incubated at 37°C for 16 h. […] MIC values were calculated as the average of triplicate measurements from three independent assays.

P. aeruginosa KCTC2004 = assay type: cell-based, Pseudomonas aeruginosa; conditions: P. aeruginosa KCTC2004; broth microdilution, 37°C, 16 h; three independent experiments in triplicate, SD 14.0%
S. typhimurium KCTC1926 = assay type: cell-based, Salmonella typhimurium; conditions: S. typhimurium KCTC1926; broth microdilution, 37°C, 16 h; three independent experiments in triplicate, SD 14.0%
Protocol: as §1

B. subtilis KCTC3068 = assay type: cell-based, Bacillus subtilis; conditions: B. subtilis KCTC3068; broth microdilution, 37°C, 16 h; three independent experiments in triplicate, SD 14.0%
B. subtilis KCTC1021 = assay type: cell-based, Bacillus subtilis; conditions: B. subtilis KCTC1021; broth microdilution, 37°C, 16 h; three independent experiments in triplicate, SD 14.0%
S. epidermidis KCTC1917 = assay type: cell-based, Staphylococcus epidermidis; conditions: S. epidermidis KCTC1917; broth microdilution, 37°C, 16 h; three independent experiments in triplicate, SD 14.0%
Protocol: as §1

S. aureus KCTC3881 = assay type: cell-based, Staphylococcus aureus; conditions: S. aureus KCTC3881; broth microdilution, 37°C, 16 h; three independent experiments in triplicate, SD 14.0%
Description: (§2) Escherichia coli KCTC 1682, E. coli KCTC 2593, E. coli KCTC 2571, Salmonella typhimurium KCTC 1926, Pseudomonas aeruginosa KCTC 1637, P. aeruginosa KCTC 2004, P. aeruginosa KCTC 2513, Bacillus subtilis KCTC 3068, B. subtilis KCTC 1021, B. subtilis KCTC 1022, Staphylococcus epidermidis KCTC 1917, Staphylococcus aureus KCTC 1621, S. aureus KCTC 1916, and S. aureus KCTC 3881 were purchased from the Korean Collection for Type Cultures, Korea Research Institute of Bioscience & Biotechnology (Taejon, Korea). Methicillin-resistant S. aureus (MRSA) (CCARM 3089, CCARM 3090, CCARM 3108, CCARM 3114, and CCARM 3126), multidrug-resistant E. coli (MDREC) (CCARM 1229 and CCARM 1238), multidrug-resistant S. typhimurium (MDRST) (CCARM 8003, CCARM 8007, and CCARM 8009), multidrug-resistant Acinetobacter baumanii (MDRAB) (CCARM 12005, CCARM 12035, CCARM 12036, CCARM 12037), and multidrug-resistant P. aeruginosa (MDRPA) (CCARM 2002, CCARM 2003, CCARM 2095, and CCARM 2163) were obtained from the Culture Collection of Antibiotic-Resistant Microbes (CCARM) at Seoul Women’s University in Korea. The antimicrobial activities of the peptides against selected organisms, including three Gram-positive, three Gram-negative, and five antibiotic-resistant bacteria, were determined using a broth microdilution assay. Briefly, single colonies of bacteria and fungi were inoculated into Luria-Bertani (LB) medium and cultured overnight at 37°C. An aliquot of the culture was transferred to 10 mL of fresh LB and incubated for an additional 3–5 h at 37°C until it reached the mid-logarithmic phase. Two-fold serial dilutions of the peptides in 1% peptone were prepared. The serial dilutions (100 µL) were added to 100 µL of cells (2×10^6 colony-forming units (CFU)/mL) in 96-well microtiter plates and incubated at 37°C for 16 h. […] MIC values were calculated as the average of triplicate measurements from three independent assays.

MRSA CCARM3089 = assay type: cell-based, Methicillin-resistant S. aureus; conditions: MRSA CCARM3089; broth microdilution, 37°C, 16 h; three independent experiments in triplicate, SD 14.0%
Description: as §2

MRSA CCARM 3108 = assay type: cell-based, Methicillin-resistant S. aureus; conditions: MRSA CCARM 3108; broth microdilution, 37°C, 16 h; three independent experiments in triplicate, SD 14.0%
Description: as §2

MRSA CCARM 3114 = assay type: cell-based, Methicillin-resistant S. aureus; conditions: MRSA CCARM 3114; broth microdilution, 37°C, 16 h; three independent experiments in triplicate, SD 14.0%
MDRST CCARM 8003 = assay type: cell-based, multidrug-resistant S. typhimurium; conditions: broth microdilution, 37°C, 16 h, three independent experiments in triplicate, SD 14.0%
MDRST CCARM 8007 = assay type: cell-based, multidrug-resistant S. typhimurium; conditions: broth microdilution, 37°C, 16 h, three independent experiments in triplicate, SD 14.0%
MDREC CCARM 1238 = assay type: cell-based, multidrug-resistant E. coli; conditions: broth microdilution, 37°C, 16 h, three independent experiments in triplicate, SD 14.0%
MDRAB CCARM 12005 = assay type: cell-based, multidrug-resistant Acinetobacter baumanii; conditions: broth microdilution, 37°C, 16 h, three independent experiments in triplicate, SD 14.0%
MDRAB CCARM 12036 = assay type: cell-based, multidrug-resistant Acinetobacter baumanii; conditions: broth microdilution, 37°C, 16 h, three independent experiments in triplicate, SD 14.0%
MDRAB CCARM 12037 = assay type: cell-based, multidrug-resistant Acinetobacter baumanii; conditions: broth microdilution, 37°C, 16 h, three independent experiments in triplicate, SD 14.0%
MDRPA CCARM 2002 = assay type: cell-based, multidrug-resistant P. aeruginosa; conditions: broth microdilution, 37°C, 16 h, three independent experiments in triplicate, SD 14.0%
Protocol: as §1

MDRPA CCARM 2003 = assay type: cell-based, multidrug-resistant P. aeruginosa; conditions: broth microdilution, 37°C, 16 h, three independent experiments in triplicate, SD 14.0%
Protocol: as §1

MDRPA CCARM 2163 = assay type: cell-based, multidrug-resistant P. aeruginosa; conditions: broth microdilution, 37°C, 16 h, three independent experiments in triplicate, SD 14.0%
Protocol: as §1

[1] = test system: Standard bacterial strains; assay type: cell-based; conditions: average over the 14 standard bacterial strains of Table 2
[2] = test system: Drug-resistant bacterial strains; conditions: average over the 18 drug-resistant bacterial strains of Table 3
Outline: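 Broth microdilution: mid-log bacteria grown in LB, 2×10^6 CFU/mL, mixed 1:1 with two-fold peptide dilutions in 1% peptone, 16 h at 37°C. Strains include KCTC reference isolates and CCARM MRSA and multidrug-resistant E. coli, S. typhimurium, A. baumanii, P. aeruginosa; MIC averaged from triplicates over three independent assays.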

## FFHHIFRGIVHVGKTIHRLVTG [Pis-1, reference compound]
E.coli KCTC2571
  MIC: 1.0 µM
P. aeruginosa KCTC1637
  MIC: 2.0 µM
P. aeruginosa KCTC2004
  MIC: 2.0 µM
S. typhimurium KCTC1926
  MIC: 2.0 µM
B. subtilis KCTC3068
  MIC: 1.0 µM
B. subtilis KCTC1021
  MIC: 2.0 µM
S. epidermidis KCTC1917
  MIC: 2.0 µM
S. aureus KCTC3881
  MIC: 2.0 µM
MRSA CCARM3089
  MIC: 8.0 µM
MRSA CCARM 3108
  MIC: 4.0 µM
MRSA CCARM 3114
  MIC: 4.0 µM
MDRST CCARM 8003
  MIC: 4.0 µM
MDRST CCARM 8007
  MIC: 4.0 µM
MDREC CCARM 1238
  MIC: 4.0 µM
MDRAB CCARM 12005
  MIC: 2.0 µM
MDRAB CCARM 12036
  MIC: 2.0 µM
MDRAB CCARM 12037
  MIC: 2.0 µM
MDRPA CCARM 2002
  MIC: 2.0 µM
MDRPA CCARM 2003
  MIC: 2.0 µM
MDRPA CCARM 2163
  MIC: 2.0 µM
[1]
  Average MIC: 1.5 µM
[2]
  Average MIC: 3.6 µM
